How the values were obtained:
[1] = target: hGYS1 enzyme (recombinant hGYS1/GN1 protein) (Homo sapiens (Human), UniProt P13807); experiment: GYS1 coupled enzyme assay (PK/LDH); assay type: biochemical; settings: hGYS1/GN1 50 nM, UDP-Glucose 0.8 mM, G6P 1 mM; geometric mean of at least 2 runs
[2] = test system: hGYS1 enzyme / glycogen synthesis in HeLa cells; experiment: GYS1 cell based assay (glycogen synthesis, Glucose-glo); set-up: species or system human; settings: Homo sapiens, HeLa, 24 h, 24 h incubation, 20 mM glucose, geometric mean of at least 2 runs
In short: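 HeLa cells starved 24 h in medium containing only 1× Glutamax were plated onto compound in medium with 20 mM glucose (1% DMSO final) for 24 h, 37 °C, 5% CO2. Acid lysates were Tris-quenched, glucoamylase-digested (pH 5.3, 1 h, 37 °C) and read by Glucose-glo luminescence. IC50 came from Hill fits, as geometric mean of ≥2 runs.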

[3] = target: hGYS2 enzyme (recombinant hGYS2/GN1 protein) (Homo sapiens (Human), UniProt P54840); experiment: GYS2 coupled enzyme assay (PK/LDH); assay type: biochemical; settings: geometric mean of at least 2 assay runs on separate days, read-out: Avg_IC50
Sequence of hGYS2 enzyme (recombinant hGYS2/GN1 protein) (P54840 whole entry): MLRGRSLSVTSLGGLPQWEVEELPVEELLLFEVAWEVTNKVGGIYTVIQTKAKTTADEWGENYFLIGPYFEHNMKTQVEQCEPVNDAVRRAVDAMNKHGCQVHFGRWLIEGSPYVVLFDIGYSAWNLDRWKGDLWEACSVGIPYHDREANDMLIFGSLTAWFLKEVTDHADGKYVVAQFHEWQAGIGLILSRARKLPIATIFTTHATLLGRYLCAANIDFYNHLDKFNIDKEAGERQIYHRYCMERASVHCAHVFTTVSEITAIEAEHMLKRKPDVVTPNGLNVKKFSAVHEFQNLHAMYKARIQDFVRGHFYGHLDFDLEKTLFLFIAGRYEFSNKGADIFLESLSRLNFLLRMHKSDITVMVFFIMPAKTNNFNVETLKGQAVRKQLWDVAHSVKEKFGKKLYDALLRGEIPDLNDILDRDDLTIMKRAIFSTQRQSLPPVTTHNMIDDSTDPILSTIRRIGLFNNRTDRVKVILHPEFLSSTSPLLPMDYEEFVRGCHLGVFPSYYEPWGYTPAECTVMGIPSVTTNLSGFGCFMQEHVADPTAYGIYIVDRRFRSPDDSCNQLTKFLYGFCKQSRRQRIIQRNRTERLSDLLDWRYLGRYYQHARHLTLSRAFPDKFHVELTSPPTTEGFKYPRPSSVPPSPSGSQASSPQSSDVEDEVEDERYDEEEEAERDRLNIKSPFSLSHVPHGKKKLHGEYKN
Sequence of hGYS2 enzyme (recombinant hGYS2/GN1 protein) (P46976 whole entry partner): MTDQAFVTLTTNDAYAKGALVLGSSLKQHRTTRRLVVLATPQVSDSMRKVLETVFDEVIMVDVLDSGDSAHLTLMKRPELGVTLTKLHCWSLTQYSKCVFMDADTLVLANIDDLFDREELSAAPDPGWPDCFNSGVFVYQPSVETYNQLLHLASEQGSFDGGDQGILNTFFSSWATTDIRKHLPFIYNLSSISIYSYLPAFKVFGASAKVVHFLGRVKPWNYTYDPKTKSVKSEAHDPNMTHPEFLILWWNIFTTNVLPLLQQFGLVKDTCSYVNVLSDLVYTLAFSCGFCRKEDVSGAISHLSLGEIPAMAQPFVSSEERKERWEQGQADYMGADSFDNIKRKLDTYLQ
In short: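 Recombinant hGYS2/GN1 (200 nM) with 2 mM UDP-glucose, 0.2% rabbit liver glycogen, 2 mM glucose-6-phosphate; UDP coupled via PK/LDH (2 mM PEP, 0.6 mM NADH). Buffer 50 mM Tris pH 7.5, 2 mM MgCl2, 100 mM KCl, 2.5% DMSO. A340 slope over 10 min; IC50 from Hill fit of duplicates.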

Sequence of hGYS1 enzyme (recombinant hGYS1/GN1 protein) (P13807 whole entry): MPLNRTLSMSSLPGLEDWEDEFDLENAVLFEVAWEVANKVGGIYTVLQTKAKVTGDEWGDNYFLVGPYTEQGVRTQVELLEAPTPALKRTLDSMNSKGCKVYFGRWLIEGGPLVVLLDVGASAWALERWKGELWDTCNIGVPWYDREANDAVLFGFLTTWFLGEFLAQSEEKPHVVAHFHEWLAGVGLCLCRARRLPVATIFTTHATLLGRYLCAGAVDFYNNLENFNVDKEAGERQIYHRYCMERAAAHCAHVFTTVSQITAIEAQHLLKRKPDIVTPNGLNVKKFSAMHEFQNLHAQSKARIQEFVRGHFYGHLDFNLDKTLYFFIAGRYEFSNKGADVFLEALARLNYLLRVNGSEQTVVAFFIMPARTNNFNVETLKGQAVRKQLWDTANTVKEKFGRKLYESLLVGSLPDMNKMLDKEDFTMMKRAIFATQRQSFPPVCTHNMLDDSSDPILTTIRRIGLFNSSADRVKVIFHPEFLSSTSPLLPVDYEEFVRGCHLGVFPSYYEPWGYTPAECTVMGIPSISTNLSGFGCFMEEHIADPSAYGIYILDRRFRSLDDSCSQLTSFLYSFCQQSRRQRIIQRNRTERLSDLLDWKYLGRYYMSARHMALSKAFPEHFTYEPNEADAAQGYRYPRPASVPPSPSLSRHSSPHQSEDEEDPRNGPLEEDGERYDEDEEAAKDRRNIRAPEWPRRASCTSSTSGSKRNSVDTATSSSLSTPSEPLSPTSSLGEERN
Sequence of hGYS1 enzyme (recombinant hGYS1/GN1 protein) (P46976 whole entry partner): as the sequence (P46976 whole entry partner) above

SMILES	IC50 [1]	IC50 [2]	IC50 [3]
CN1CCN(C(=O)NCC(=O)N2C[C@H](F)C[C@H]2C(=O)N[C@@H](c2ccccc2)c2ccc(C3CC3)c(F)c2)CC1 [Compound 486, N-{2-[(2S,4R)-2-{[(S)-(4-cyclopropyl-3-fluorophenyl)(phenyl)methyl]carbamoyl}-4-fluoropyrrolidin-1-yl]-2-oxoethyl}-4-methylpiperazine-1-carboxamide]	41 nM	1020 nM	> 100000 nM
COCCN1CCN(C(=O)NCC(=O)N2C[C@H](F)C[C@H]2C(=O)N[C@@H](c2ccccc2)c2ccc(C3CC3)c(F)c2)CC1 [Compound 488, N-{2-[(2S,4R)-2-{[(S)-(4-cyclopropyl-3-fluorophenyl)(phenyl)methyl]carbamoyl}-4-fluoropyrrolidin-1-yl]-2-oxoethyl}-4-(2-methoxyethyl) piperazine-1-carboxamide]	31 nM	880 nM	> 100000 nM
CC1(c2ccc([C@@H](NC(=O)[C@@H]3C[C@@H](F)CN3C(=O)CN3CCNCC3=O)c3ccccc3)cc2F)CC1 [Compound 562, (2S,4R)-4-fluoro-N-[(S)-[3-fluoro-4-(1-methylcyclopropyl)phenyl](phenyl)methyl]-1-[2-(2-oxopiperazin-1-yl)acetyl]pyrrolidine-2-carboxamide]	685 nM	7070 nM	> 100000 nM
Cc1nn(C)c(C)c1CC(=O)N1C[C@H](F)C[C@H]1C(=O)N[C@@H](c1ccccc1)c1ccc(C(C)C)cc1 [Compound 136, (2S,4R)-4-fluoro-N-[(S)-phenyl[4-(propan-2-yl)phenyl]methyl]-1-[2-(1,3,5-trimethyl-1H-pyrazol-4-yl)acetyl]pyrrolidine-2-carboxamide]	9 nM	170 nM	> 100000 nM
Cc1nn(C)c(C)c1CC(=O)N1C[C@H](F)C[C@H]1C(=O)N[C@@H](c1ccccc1)c1ccc(C(C)C)c(F)c1 [Compound 351, (2S,4R)-4-fluoro-N-[(S)-[3-fluoro-4-(propan-2-yl)phenyl](phenyl)methyl]-1-[2-(1,3,5-trimethyl-1H-pyrazol-4-yl)acetyl]pyrrolidine-2-carboxamide]	8 nM	130 nM	> 100000 nM
CC(=O)N1CCCC(C(=O)N2C[C@H](F)C[C@H]2C(=O)N[C@@H](c2ccccc2)c2ccc(C(C)C)cc2)C1C (stereo partly drawn) [Compound 178, (2S,4R)-1-(1-acetyl-2-methylpiperidine-3-carbonyl)-4-fluoro-N-[(S)-phenyl[4-(propan-2-yl)phenyl]methyl]pyrrolidine-2-carboxamide]	38 nM	410 nM	> 100000 nM
Cc1cc([C@@H](NC(=O)[C@@H]2C[C@@H](F)CN2C(=O)Cc2nnc(C(F)F)o2)c2ccccc2)ncc1C(C)C [Compound 602, (2S,4R)-1-(2-(5-(difluoromethyl)-1,3,4-oxadiazol-2-yl)acetyl)-4-fluoro-N—((S)-(5-isopropyl-4-methylpyridin-2-yl)(phenyl)methyl)pyrrolidine-2-carboxamide]	92 nM	760 nM	> 100000 nM

Results, then the compound that gave them:

IC50 [1]	IC50 [2]	IC50 [3]	SMILES
8 nM	120 nM	> 100000 nM	CC(C)c1ccc([C@@H](NC(=O)[C@@H]2C[C@@H](F)CN2C(=O)Cn2cc(N(C)C)nn2)c2ccccc2)nc1F [Compound 393, (2S,4R)-1-{2-[4-(dimethylamino)-1H-1,2,3-triazol-1-yl]acetyl}-4-fluoro-N-[(S)-[6-fluoro-5-(propan-2-yl)pyridin-2-yl](phenyl)methyl] pyrrolidine-2-carboxamide]
69 nM	1190 nM	68200 nM	O=C(N[C@@H](c1ccccc1)c1ccc(C2CC2)c(F)c1)[C@@H]1C[C@@H](F)CN1C(=O)Cc1ccc2ncnn2c1 [Compound 478, (2S,4R)-N-[(S)-(4-cyclopropyl-3-fluorophenyl)(phenyl)methyl]-4-fluoro-1-(2-{[1,2,4]triazolo[1,5-a]pyridin-6-yl}acetyl) pyrrolidine-2-carboxamide]
55 nM	970 nM	> 100000 nM	O=C(N[C@@H](c1ccccc1)c1ccc(C2CC2)c(F)n1)[C@@H]1C[C@@H](F)CN1C(=O)CNc1ncco1 [Compound 309, (2S,4R)-N-[(S)-(5-cyclopropyl-6-fluoropyridin-2-yl)(phenyl)methyl]-4-fluoro-1-{2-[(1,3-oxazol-2-yl)amino]acetyl}pyrrolidine-2-carboxamide]
33 nM	420 nM	> 100000 nM	CC(C)c1ccc([C@@H](NC(=O)[C@@H]2C[C@@H](F)CN2C(=O)Cc2cnn[nH]2)c2ccccc2)cc1 [Compound 1, (2S,4R)-1-(2-(1H-1,2,3-triazol-5-yl)acetyl)-4-fluoro-N-((S)-(4-isopropylphenyl)(phenyl)methyl) pyrrolidine-2-carboxamide]
6 nM	130 nM	> 100000 nM	CC(C)c1ccc([C@@H](NC(=O)[C@@H]2C[C@@H](F)CN2C(=O)Cn2ccc(=O)[nH]c2=O)c2ccccc2)nc1F [Compound 785, (2S,4R)-1-[2-(2,4-dioxo-1,2,3,4-tetrahydropyrimidin-1-yl)acetyl]-4-fluoro-N-[(S)-[6-fluoro-5-(propan-2-yl)pyridin-2-yl](phenyl)methyl] pyrrolidine-2-carboxamide]
40 nM	980 nM	> 100000 nM	O=C(N[C@@H](c1ccccc1)c1ccc(C2CC2)c(F)c1)[C@@H]1C[C@@H](F)CN1C(=O)CNC(=O)N1CCOCC1 [Compound 452, N-{2-[(2S,4R)-2-{[(S)-(4-cyclopropyl-3-fluorophenyl)(phenyl)methyl]carbamoyl}-4-fluoropyrrolidin-1-yl]-2-oxoethyl} morpholine-4-carboxamide]
32 nM	720 nM	> 100000 nM	Cn1c(=O)n(CC(=O)N2C[C@H](F)C[C@H]2C(=O)N[C@@H](c2ccccc2)c2ccc(C3CC3)c(F)c2)c2ccccc21 [Compound 457, (2S,4R)-N-[(S)-(4-cyclopropyl-3-fluorophenyl)(phenyl)methyl]-4-fluoro-1-[2-(3-methyl-2-oxo-2,3-dihydro-1H-1,3-benzodiazol-1-yl)acetyl] pyrrolidine-2-carboxamide]
15 nM	310 nM	> 100000 nM	O=C(N[C@@H](c1ccccc1)c1ccc(C2CC2)c(F)n1)[C@@H]1C[C@@H](F)CN1C(=O)Cn1nccc1C(F)F [Compound 725, (2S,4R)-N-[(S)-(5-cyclopropyl-6-fluoropyridin-2-yl)(phenyl)methyl]-1-{2-[5-(difluoromethyl)-1H-pyrazol-1-yl]acetyl}-4-fluoropyrrolidine-2-carboxamide]
66 nM	1620 nM	> 100000 nM	O=C(N[C@@H](c1ccccc1)c1ccc(C2CC2)c(F)n1)[C@@H]1C[C@@H](F)CN1C(=O)Cc1ccc[nH]c1=O [Compound 731, (2S,4R)-N-[(S)-(5-cyclopropyl-6-fluoropyridin-2-yl)(phenyl)methyl]-4-fluoro-1-[2-(2-oxo-1,2-dihydropyridin-3-yl)acetyl]pyrrolidine-2-carboxamide]
55 nM	1430 nM	> 100000 nM	O=C(N[C@@H](c1ccccc1)c1ccc(C2CC2)c(F)c1)[C@@H]1C[C@@H](F)CN1C(=O)Cc1cnc2ccccn12 [Compound 479, (2S,4R)-N-[(S)-(4-cyclopropyl-3-fluorophenyl)(phenyl)methyl]-4-fluoro-1-(2-{imidazo[1,2-a]pyridin-3-yl}acetyl)pyrrolidine-2-carboxamide]

— patent US11814367B2, “Inhibitors of glycogen synthase 1 (GYS1) and methods of use thereof” (Maze Therapeutics, Inc., priority 2021, dated 2023)
